This is an account of results in patent US20030099674A1 (priority 2001, published 2003).

Like-named read-outs stand apart in the source and are kept apart here.

The conditions of data set [1]: no lecithin, 24 hours at 25° C. On the procedure:
The mixtures were agitated for 24 hours at 25° C., and were then filtered through a 0.2 micron filter.

Data set [2] can be described thus: Stability of paclitaxel in solutions containing oil and soy lecithin (HPLC purity). The data set is classed as physicochemical. How it is done: The ethanol solution was mixed with the selected oil. […] The resulting oil solutions were sealed in glass vials and stored at 40° C. or at 60° C.
Data set [3] is described as follows: Paclitaxel emulsion stability study #2: effect of pH, dry vs liquid emulsions at 40° C. The data set is classed as physicochemical. The note with it: pH 4.0 to 8.9, stored at 40° C., HPLC. How it is done:
These tests were conducted to select optimal pH's for a dry paclitaxel emulsion.
The fine emulsion was divided into 5 portions. The pH of each portion was adjusted to pH 4.0, 5.6, 6.6, 7.8 or 8.9 using 0.2 N HCl or 0.2 N NaOH solution. Average droplet size of each pH adjusted emulsion was determined using LLS.
The stability evaluation included both dry and liquid emulsions (pre-lyophilization) at each pH. These emulsions were stored sealed in glass vials at 40° C.

The conditions of data set [4]: in the dry emulsions of MCT or sesame oil at a storage temperature of 25° C. or below.
Experimental: At each time point including the time 0, a vial was removed from each stability temperature chamber and reconstituted with 0.2 ml deionized water to reform the emulsion.
Along with the dry emulsion samples, the liquid emulsion samples (pre-lyophilization) were also included in this study. The liquid emulsions were stored at −20° C.

Turning to `CC(=O)O[C@H]1C(=O)[C@@]2(C)[C@H]([C@H](OC(=O)c3ccccc3)[C@]3(O)C[C@H](OC(=O)[C@H](O)[C@@H](NC(=O)c4ccccc4)c4ccccc4)C(C)=C1C3(C)C)[C@]1(OC(C)=O)CO[C@@H]1C[C@@H]2O` [paclitaxel], the “Solubility at 25° C.” value is reported as 40 mg/g of oil in data set [1] (MCT oil (Miglyol 812N)) and 5 mg/g of oil in data set [1] (Sesame oil). Besides, the “Purity (% paclitaxel peak area over total peak area) Day 0” value in data set [2] (Corn oil with soy lecithin) is 98.7 % paclitaxel peak area over total peak area; in data set [2] (Cottonseed oil with soy lecithin) it was 98.8 % paclitaxel peak area over total peak area; in data set [2] (Ethyl oleate with soy lecithin), 97.0 % paclitaxel peak area over total peak area; in data set [2] (Miglyol 812N with soy lecithin), 99.3 % paclitaxel peak area over total peak area; in data set [2] (Safflower oil with soy lecithin), 98.0 % paclitaxel peak area over total peak area; in data set [2] (Sesame oil + oleic acid, with soy lecithin), 98.5 % paclitaxel peak area over total peak area. In addition, the “Purity (% paclitaxel peak area over total peak area) Day 0” value in data set [2] (Sesame oil + vit E, with soy lecithin) is given as 99.0 % paclitaxel peak area over total peak area; in data set [2] (Sesame oil + water, with soy lecithin), 99.1 % paclitaxel peak area over total peak area; in data set [2] (Sesame oil with soy lecithin), 99.0 % paclitaxel peak area over total peak area; in data set [2] (Sesame oil without soy lecithin) it was 99.2 % paclitaxel peak area over total peak area; in data set [2] (Soybean oil with soy lecithin) it was 99.4 % paclitaxel peak area over total peak area; in data set [2] (Vitamin E with soy lecithin), 96.3 % paclitaxel peak area over total peak area. Besides, the “Stability of paclitaxel in dry versus liquid emulsions” value in data set [3] was “more stable than in the liquid emulsions”. In addition, the “Time paclitaxel is chemically stable” value in data set [4] was “at least 28 days”.
